From ChEMBL document CHEMBL1201862, “PubChem BioAssay data set” (2004)
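Results reflect a 48-hour exposure of cells in 96-well plates to compound at five concentrations. GI50 is the concentration that inhibits growth by half.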 The source made the active and inactive calls. Cut-off read from the data, not from the text of the source: active = GI50 up to about 1.1 µM and inactive = higher.

Experiments:
Test in all cases: DTP human tumour cell line panel, 48 h
SK-MEL-28 = tested on: SK-MEL-28
OVCAR-8 = tested on: OVCAR-8
NCI-H23 = tested on: NCI-H23
A498 = tested on: A498
HCT-15 = tested on: HCT-15
HOP-62 = tested on: HOP-62
M14 = tested on: M14
A549 = tested on: A549
MOLT-4 = tested on: MOLT-4
SNB-19 = tested on: SNB-19
CAKI-1 = tested on: CAKI-1
RXF 393 = tested on: RXF 393
SK-MEL-5 = tested on: SK-MEL-5
NCI-H460 = tested on: NCI-H460
SK-OV-3 = tested on: SK-OV-3
NCI-H226 = tested on: NCI-H226

| SMILES | GI50 (SK-MEL-28) | GI50 (OVCAR-8) | GI50 (NCI-H23) | GI50 (A498) | GI50 (HCT-15) [µM] | GI50 (HOP-62) | GI50 (M14) | GI50 (A549) | GI50 (MOLT-4) | GI50 (SNB-19) | GI50 (CAKI-1) | GI50 (RXF 393) | GI50 (SK-MEL-5) | GI50 (NCI-H460) | GI50 (SK-OV-3) | GI50 (NCI-H226) |
| --- | --- | --- | --- | --- | --- | --- | --- | --- | --- | --- | --- | --- | --- | --- | --- | --- |
| Cc1ccc([N+](=O)[O-])cc1NC(=O)/C(CC(=O)c1sc(C(N)=S)nc1C)=N\N | > 100 µM (inactive) | > 100 µM (inactive) | 31.7 µM (inactive) | > 100 µM (inactive) | > 100 | > 100 µM (inactive) | > 100 µM (inactive) | 46.2 µM (inactive) | 68.5 µM (inactive) | > 100 µM (inactive) | > 100 µM (inactive) | > 100 µM (inactive) | 90.6 µM (inactive) | 35.1 µM (inactive) | 44.1 µM (inactive) |  |
| COCCCNC(=O)CC(=O)NCCCOC | > 100 µM (inactive) | > 100 µM (inactive) | > 100 µM (inactive) | > 100 µM (inactive) | > 100 | > 100 µM (inactive) | > 100 µM (inactive) | > 100 µM (inactive) | > 100 µM (inactive) | > 100 µM (inactive) |  | > 100 µM (inactive) | > 100 µM (inactive) | > 100 µM (inactive) |  |  |
| CCOC(=O)N1N=NC2C3OC(C[C@@]3(C#N)OC(C)=O)[C@H]21 (some centres undefined) | > 100 µM (inactive) | > 100 µM (inactive) | > 100 µM (inactive) |  | > 100 | > 100 µM (inactive) | > 100 µM (inactive) | > 100 µM (inactive) | > 100 µM (inactive) | > 100 µM (inactive) | > 100 µM (inactive) | > 100 µM (inactive) | > 100 µM (inactive) | > 100 µM (inactive) | > 100 µM (inactive) | > 100 µM (inactive) |
| COc1cc2cccc(/N=C\c3ccccc3Cl)c2cc1OC | > 100 µM (inactive) | > 100 µM (inactive) | > 100 µM (inactive) |  | 25.5 | > 100 µM (inactive) | > 100 µM (inactive) | > 100 µM (inactive) | > 100 µM (inactive) | > 100 µM (inactive) | > 100 µM (inactive) | > 100 µM (inactive) | > 100 µM (inactive) | > 100 µM (inactive) | > 100 µM (inactive) | > 100 µM (inactive) |
| CCNC(=O)O/N=C1\CCC2[C@@H]3CC=C4C[C@@H](OC5CCCCO5)CC[C@]4(C)C3CC[C@]12C (some centres undefined) | 3.19 µM (inactive) | 3.9 µM (inactive) | 2.72 µM (inactive) | 34 µM (inactive) | 1.63 | 22.3 µM (inactive) | 1.71 µM (inactive) | 2.74 µM (inactive) | 1.61 µM (inactive) | 0.723 µM (active) | 2.5 µM (inactive) | 2.2 µM (inactive) | 2.28 µM (inactive) | 1.93 µM (inactive) | 5.31 µM (inactive) |  |
| COC(=O)C(=O)C(CC(=O)Nc1c(C)cccc1C)C(=O)OC (centres undefined) | > 100 µM (inactive) | > 100 µM (inactive) | > 100 µM (inactive) |  | > 100 | > 100 µM (inactive) | > 100 µM (inactive) | > 100 µM (inactive) | > 100 µM (inactive) | > 100 µM (inactive) | > 100 µM (inactive) | > 100 µM (inactive) | > 100 µM (inactive) | > 100 µM (inactive) | > 100 µM (inactive) | > 100 µM (inactive) |
| CCOC(=O)C(C(=O)Cc1ccccc1)c1ccccc1 (centres undefined) | > 100 µM (inactive) | > 100 µM (inactive) | > 100 µM (inactive) |  | > 100 | > 100 µM (inactive) | > 100 µM (inactive) | > 100 µM (inactive) | 87.9 µM (inactive) | > 100 µM (inactive) | > 100 µM (inactive) |  | > 100 µM (inactive) | > 100 µM (inactive) | > 100 µM (inactive) | > 100 µM (inactive) |
| O=C(CC1(O)C(=O)Nc2ccccc21)c1ccccc1Cl (centres undefined) | > 100 µM (inactive) | > 100 µM (inactive) | > 100 µM (inactive) | > 100 µM (inactive) | > 100 |  | > 100 µM (inactive) | > 100 µM (inactive) | > 100 µM (inactive) | > 100 µM (inactive) | > 100 µM (inactive) | > 100 µM (inactive) | > 100 µM (inactive) | > 100 µM (inactive) | > 100 µM (inactive) | > 100 µM (inactive) |
| CCOC(=O)c1[nH]c2cc(OC)c(OC)cc2c1CN(C)C | > 100 µM (inactive) | > 100 µM (inactive) | > 100 µM (inactive) | > 100 µM (inactive) | > 100 |  | > 100 µM (inactive) | > 100 µM (inactive) | > 100 µM (inactive) | > 100 µM (inactive) | > 100 µM (inactive) | > 100 µM (inactive) | > 100 µM (inactive) | > 100 µM (inactive) | > 100 µM (inactive) | > 100 µM (inactive) |
| C=CCNC(=S)N1CC(C)C(=O)Nc2ccccc21 (centres undefined) | > 100 µM (inactive) | > 100 µM (inactive) | > 100 µM (inactive) |  | > 100 | > 100 µM (inactive) | > 100 µM (inactive) | > 100 µM (inactive) | > 100 µM (inactive) | > 100 µM (inactive) |  | > 100 µM (inactive) | > 100 µM (inactive) | > 100 µM (inactive) |  | > 100 µM (inactive) |
| CC(=O)c1cccc(NC(=O)/C(=N\NC(C)(C)C)c2c(O)c3ccccc3oc2=O)c1 | > 100 µM (inactive) | > 100 µM (inactive) | > 100 µM (inactive) |  | > 100 | > 100 µM (inactive) | > 100 µM (inactive) | > 100 µM (inactive) | > 100 µM (inactive) | > 100 µM (inactive) | > 100 µM (inactive) | > 100 µM (inactive) | > 100 µM (inactive) | > 100 µM (inactive) | > 100 µM (inactive) | > 100 µM (inactive) |
| COc1cc(C(=O)NO)ccc1O | > 100 µM (inactive) | > 100 µM (inactive) | > 100 µM (inactive) | > 100 µM (inactive) | > 100 | > 100 µM (inactive) | > 100 µM (inactive) | > 100 µM (inactive) | > 100 µM (inactive) | > 100 µM (inactive) |  | > 100 µM (inactive) |  | > 100 µM (inactive) | > 100 µM (inactive) |  |
| O=C(Cc1ccccc1)N/N=C(/c1nc2ccc([N+](=O)[O-])cc2nc1O)C(O)c1ccc(C(O)/C(=N/NC(=O)Cc2ccccc2)c2nc3ccc([N+](=O)[O-])cc3nc2O)cc1 (centres undefined) | > 100 µM (inactive) | 80.4 µM (inactive) | > 100 µM (inactive) | > 100 µM (inactive) | 19.4 | 44.6 µM (inactive) | 40.6 µM (inactive) | 50.9 µM (inactive) |  | > 100 µM (inactive) | 40.1 µM (inactive) | > 100 µM (inactive) |  |  | > 100 µM (inactive) | > 100 µM (inactive) |
| CCCCCC[C@@H]1CCC2C(CO)[C@@H](O)CC[C@@H]2C1 (some centres undefined) | 19.6 µM (inactive) | 18.2 µM (inactive) | 16 µM (inactive) |  | 19 | 18.3 µM (inactive) | 17.5 µM (inactive) | 17.4 µM (inactive) | 18.2 µM (inactive) | 18.1 µM (inactive) | > 10 µM (inactive) |  | 20 µM (inactive) | 15.5 µM (inactive) |  | 20.6 µM (inactive) |
